In US20120220562A1, “Anti-Viral Compounds” (ABBOTT LABAORATORIES, priority 2011, published 2012):

What follows are compounds tested on HCV 1b-Con1 replicon (assay: HCV 1b-Con1 replicon assay in the presence of 5% FBS). Conditions: Hepatitis C virus.
Assay type: cell-based
`COC(=O)N[C@H](C(=O)N1CCC[C@H]1c1nc2cc([C@H]3CC[C@H](c4ccc5[nH]c([C@@H]6CCCN6C(=O)[C@@H](NC(=O)OC)C(C)C)nc5c4)N3c3cc(F)c(N4C[C@H]5CCCC[C@H]5C4)c(F)c3)ccc2[nH]1)C(C)C` [Example 4.3, methyl {(2S)-1-[(2S)-2-{5-[(2R,5R)-1-{3,5-difluoro-4-[(3aR,7aS)-octahydro-2H-isoindol-2-yl]phenyl}-5-{2-[(2S)-1-{(2S)-2-[(methoxycarbonyl)amino]-3-methylbutanoyl}pyrrolidin-2-yl]-1H-benzimidazol-5-yl}pyrrolidin-2-yl]-1H-benzimidazol-2-yl}pyrrolidin-1-yl]-3-methyl-1-oxobutan-2-yl}carbamate] showed an EC50 of under 0.1 nM. Compound `COC(=O)N[C@H](C(=O)N1CCCC1c1nc2cc([C@H]3CC[C@H](c4ccc5[nH]c([C@@H]6CCCN6)nc5c4)N3c3ccc(C(C)(C)C)cc3)ccc2[nH]1)C(C)C` (stereo partly drawn) [Example 4.20, methyl [(2S)-1-(2-{5-[(2R,5R)-1-(4-tert-butylphenyl)-5-{2-[(2S)-pyrrolidin-2-yl]-1H-benzimidazol-5-yl}pyrrolidin-2-yl]-1H-benzimidazol-2-yl}pyrrolidin-1-yl)-3-methyl-1-oxobutan-2-yl]carbamate] has an EC50 of under 0.1 nM. `COC(=O)N[C@H](C(=O)N1[C@H](c2nc3cc([C@H]4CC[C@H](c5cc6nc([C@@H]7C[C@@H]8CCC[C@@H]8N7C(=O)[C@@H](NC(=O)OC)C7CCOCC7)[nH]c6cc5F)N4c4cc(F)c(N5CCCCC5)c(F)c4)c(F)cc3[nH]2)C[C@@H]2CCC[C@@H]21)C1CCOCC1` [Example 3.41, dimethyl ({(2R,5R)-1-[3,5-difluoro-4-(piperidin-1-yl)phenyl]pyrrolidine-2,5-diyl}bis{(6-fluoro-1H-benzimidazole-5,2-diyl)(2S,3aS,6aS)hexahydrocyclopenta[b]pyrrole-2,1(2H)-diyl[(1S)-2-oxo-1-(tetrahydro-2H-pyran-4-yl)ethane-2,1-diyl]})biscarbamate] showed an EC50 of under 0.1 nM. `COC(=O)N[C@H](C(=O)N1[C@H](c2nc3cc([C@H]4CC[C@H](c5ccc6[nH]c([C@@H]7C[C@@H]8CCC[C@@H]8N7C(=O)[C@@H](NC(=O)OC)C(C)C)nc6c5)N4c4cc(F)c(N5CCC(c6ccccc6)CC5)c(F)c4)ccc3[nH]2)C[C@@H]2CCC[C@@H]21)C(C)C` [Example 3.28, methyl {(2S)-1-[(2S,3aS,6aS)-2-{5-[(2R,5R)-1-[3,5-difluoro-4-(4-phenylpiperidin-1-yl)phenyl]-5-{2-[(2S,3aS,6aS)-1-{(2S)-2-[(methoxycarbonyl)amino]-3-methylbutanoyl}octahydrocyclopenta[b]pyrrol-2-yl]-1H-benzimidazol-5-yl}pyrrolidin-2-yl]-1H-benzimidazol-2-yl}hexahydrocyclopenta[b]pyrrol-1(2H)-yl]-3-methyl-1-oxobutan-2-yl}carbamate] showed an EC50 of under 0.1 nM. Compound `COC(=O)N[C@H](C(=O)N1C[C@@H](F)C[C@H]1c1nc2cc([C@H]3CC[C@H](c4ccc5[nH]c([C@@H]6C[C@H](F)CN6C(=O)[C@@H](NC(=O)OC)C(C)C)nc5c4)N3c3ccc(C(C)(C)C)cc3)ccc2[nH]1)C(C)C` [Example 3.12, methyl {(2S)-1-[(2S,4S)-2-{5-[(2R,5R)-1-(4-tert-butylphenyl)-5-{2-[(2S,45)-4-fluoro-1-{(2S)-2-[(methoxycarbonyl)amino]-3-methylbutanoyl}pyrrolidin-2-yl]-1H-benzimidazol-5-yl}pyrrolidin-2-yl]-1H-benzimidazol-2-yl}-4-fluoropyrrolidin-1-yl]-3-methyl-1-oxobutan-2-yl}carbamate] has an EC50 of under 0.1 nM. Compound `COC(=O)N[C@H](C(=O)N1CCC[C@H]1c1nc2cc([C@H]3CC[C@H](c4cc5nc([C@@H]6CCCN6C(=O)[C@@H](NC(=O)OC)C6CCOCC6)[nH]c5cc4F)N3c3cc(F)c(N4CCC(c5ccc(F)cc5)CC4)c(F)c3)c(F)cc2[nH]1)C1CCOCC1` [Example 3.53, dimethyl ([(2R,5R)-1-{3,5-difluoro-4-[4-(4-fluorophenyl)piperidin-1-yl]phenyl}pyrrolidine-2,5-diyl]bis{(6-fluoro-1H-benzimidazole-5,2-diyl)(2S)pyrrolidine-2,1-diyl[(1S)-2-oxo-1-(tetrahydro-2H-pyran-4-yl)ethane-2,1-diyl]})biscarbamate] has an EC50 of under 0.1 nM. Compound `COC(=O)N[C@H](C(=O)N1CCC[C@H]1c1nc2cc([C@H]3CC[C@H](c4cc5nc([C@@H]6CCCN6C(=O)[C@@H](NC(=O)OC)C(C)C)[nH]c5cc4F)N3c3cc(F)c(N4CCC(c5ccc(C)s5)CC4)c(F)c3)c(F)cc2[nH]1)C(C)C` [Example 4.61, methyl {(2S)-1-[(2S)-2-{5-[(2R,5R)-1-{3,5-difluoro-4-[4-(5-methyl-2-thienyl)piperidin-1-yl]phenyl}-5-{6-fluoro-2-[(2S)-1-{(2S)-2-[(methoxycarbonyl)amino]-3-methylbutanoyl}pyrrolidin-2-yl]-1H-benzimidazol-5-yl}pyrrolidin-2-yl]-6-fluoro-1H-benzimidazol-2-yl}pyrrolidin-1-yl]-3-methyl-1-oxobutan-2-yl}carbamate] has an EC50 of under 0.1 nM. `COC(=O)N[C@H](C(=O)N1CCC[C@H]1c1nc2cc([C@H]3CC[C@@H](c4cc5nc([C@@H]6CCCN6C(=O)[C@@H](NC(=O)OC)C(C)C)[nH]c5cc4F)N3c3cc(F)c(N4CCCCC4)c(F)c3)c(F)cc2[nH]1)C(C)C` [Example 4.52, methyl {(2S)-1-[(2S)-2-{5-[(2S,5R)-1-[3,5-difluoro-4-(piperidin-1-yl)phenyl]-5-{6-fluoro-2-[(2S)-1-{(2S)-2-[(methoxycarbonyl)amino]-3-methylbutanoyl}pyrrolidin-2-yl]-1H-benzimidazol-5-yl}pyrrolidin-2-yl]-6-fluoro-1H-benzimidazol-2-yl}pyrrolidin-1-yl]-3-methyl-1-oxobutan-2-yl}carbamate] was tested, and the EC50 was under 0.1 nM. Compound `COC(=O)N[C@H](C(=O)N1CCC[C@H]1c1nc2cc([C@H]3CC[C@@H](c4cc5nc([C@@H]6CCCN6C(=O)[C@@H](NC(=O)OC)C(C)C)[nH]c5cc4F)N3c3cnc(N4CCC(c5ccccc5)CC4)nc3)c(F)cc2[nH]1)C(C)C` [Example 3.46, methyl {(2S)-1-[(2S)-2-(6-fluoro-5-{(2R,5S)-5-{6-fluoro-2-[(2S)-1-{(2S)-2-[(methoxycarbonyl)amino]-3-methylbutanoyl}pyrrolidin-2-yl]-1H-benzimidazol-5-yl}-1-[2-(4-phenylpiperidin-1-yl)pyrimidin-5-yl]pyrrolidin-2-yl}-1H-benzimidazol-2-yl)pyrrolidin-1-yl]-3-methyl-1-oxobutan-2-yl}carbamate] has an EC50 of under 0.1 nM. For `COC(=O)N[C@H](C(=O)N1CCC[C@H]1c1nc2cc([C@H]3CC[C@H](c4cc5nc([C@@H]6CCCN6C(=O)[C@@H](NC(=O)OC)C(C)C)[nH]c5cc4F)N3c3cc(F)c(N4CCC(c5ccc(F)cc5F)CC4)c(F)c3)c(F)cc2[nH]1)C(C)C` [Example 4.56, methyl {(2S)-1-[(2S)-2-{5-[(2R,5R)-1-{4-[4-(2,4-difluorophenyl)piperidin-1-yl]-3,5-difluorophenyl}-5-{6-fluoro-2-[(2S)-1-{(2S)-2-[(methoxycarbonyl)amino]-3-methylbutanoyl}pyrrolidin-2-yl]-1H-benzimidazol-5-yl}pyrrolidin-2-yl]-6-fluoro-1H-benzimidazol-2-yl}pyrrolidin-1-yl]-3-methyl-1-oxobutan-2-yl}carbamate], the EC50 was under 0.1 nM. Work on `COC(=O)N[C@H](C(=O)N1CCC[C@H]1c1nc2ccc([C@H]3CC[C@H](c4ccc5nc([C@@H]6CCCN6C(=O)[C@@H](NC(=O)OC)C(C)C)[nH]c5c4)N3c3c(F)c(F)c(N4CCCCC4)c(F)c3F)cc2[nH]1)C(C)C` [Example 2.6, methyl {(2S)-1-[(2S)-2-(6-{(2R,5R)-5-{2-[(2S)-1-{(2S)-2-[(methoxycarbonyl)amino]-3-methylbutanoyl}pyrrolidin-2-yl]-1H-benzimidazol-6-yl}-1-[2,3,5,6-tetrafluoro-4-(piperidin-1-yl)phenyl]pyrrolidin-2-yl}-1H-benzimidazol-2-yl)pyrrolidin-1-yl]-3-methyl-1-oxobutan-2-yl}carbamate] yielded an EC50 of under 0.1 nM. Compound `COC(=O)N[C@H](C(=O)N1CCC[C@H]1c1nc2cc([C@H]3CC[C@H](c4cc5nc([C@@H]6CCCN6C(=O)[C@@H](NC(=O)OC)C(C)C)[nH]c5cc4F)N3c3cc(F)c(N4CCC(C(C)(C)C)CC4)c(F)c3)c(F)cc2[nH]1)C(C)C` [Example 4.27, methyl {(2S)-1-[(2S)-2-{5-[(2R,5R)-1-[4-(4-tert-butylpiperidin-1-yl)-3,5-difluorophenyl]-5-{6-fluoro-2-[(2S)-1-{(2S)-2-[(methoxycarbonyl)amino]-3-methylbutanoyl}pyrrolidin-2-yl]-1H-benzimidazol-5-yl}pyrrolidin-2-yl]-6-fluoro-1H-benzimidazol-2-yl}pyrrolidin-1-yl]-3-methyl-1-oxobutan-2-yl}carbamate] has an EC50 of under 0.1 nM. For `COC(=O)N[C@H](C(=O)N1CCC[C@H]1c1nc2cc([C@H]3CC[C@H](c4cc5nc([C@@H]6CCCN6C(=O)[C@@H](NC(=O)OC)C(C)C)[nH]c5cc4F)N3c3cc(F)c(N4CCC5(CCCCC5)CC4)c(F)c3)c(F)cc2[nH]1)C(C)C` [Example 4.53, methyl {(2S)-1-[(2S)-2-{5-[(2R,5R)-1-[4-(3-azaspiro[5.5]undec-3-yl)-3,5-difluorophenyl]-5-{6-fluoro-2-[(2S)-1-{(2S)-2-[(methoxycarbonyl)amino]-3-methylbutanoyl}pyrrolidin-2-yl]-1H-benzimidazol-5-yl}pyrrolidin-2-yl]-6-fluoro-1H-benzimidazol-2-yl}pyrrolidin-1-yl]-3-methyl-1-oxobutan-2-yl}carbamate], the EC50 was under 0.1 nM. `COC(=O)N[C@H](C(=O)N1CCC[C@H]1c1nc2cc([C@H]3CC[C@H](c4ccc5[nH]c([C@@H]6CCCN6C(=O)[C@@H](NC(=O)OC)C6CCCCC6)nc5c4)N3c3cc(F)c(N4CCCCC4)c(F)c3)ccc2[nH]1)C1CCCCC1` [Example 5.6, dimethyl ({(2R,5R)-1-[3,5-difluoro-4-(piperidin-1-yl)phenyl]pyrrolidine-2,5-diyl}bis{1H-benzimidazole-5,2-diyl(2S)pyrrolidine-2,1-diyl [(1S)-1-cyclohexyl-2-oxoethane-2,1-diyl]})biscarbamate] gave an EC50 of under 0.1 nM.
